# Columns and labels:
# Assay type in all cases: cell-based
# LNCaP cells = experiment: Assay on inhibitory activity for LNCaP cell proliferation (CCK-8); conditions: 168 h incubation
# Description: (§1) LNCaP cells in a good growth state were taken, washed with PBS, digested with pancreatin, and added with 2% CSS—FBS phenol red-free 1640 complete medium to terminate the digestion. The cells were collected by using a centrifuge tube, adjusted to a cell density of 1×10^5 cells/mL, and seeded in a 96-well plate (100 μL/well). Meanwhile, compounds were added using a nanoliter pipettor such that the final concentrations of the compounds were 10000 nM-0.61 nM. Two duplicate wells were set for each concentration, and meanwhile, a control was set. After another 168 h of incubation in the cell incubator, the detection reagent CCK-8 (manufacturer: Dojindo, 10 μL/well) was added.
# AR in VCaP cells = molecular target: T1, AR in VCaP cells (Homo sapiens, UniProt P10275); experiment: Assay on degradation activity for AR in VCaP cells (HTRF human androgen receptor detection kit); conditions: 24 h incubation
# T1 construct: Assay on Degradation Activity for AR in VCaP Cells; endogenous in cells; host or cells: VCaP cells
# T1 sequence (P10275 1-920): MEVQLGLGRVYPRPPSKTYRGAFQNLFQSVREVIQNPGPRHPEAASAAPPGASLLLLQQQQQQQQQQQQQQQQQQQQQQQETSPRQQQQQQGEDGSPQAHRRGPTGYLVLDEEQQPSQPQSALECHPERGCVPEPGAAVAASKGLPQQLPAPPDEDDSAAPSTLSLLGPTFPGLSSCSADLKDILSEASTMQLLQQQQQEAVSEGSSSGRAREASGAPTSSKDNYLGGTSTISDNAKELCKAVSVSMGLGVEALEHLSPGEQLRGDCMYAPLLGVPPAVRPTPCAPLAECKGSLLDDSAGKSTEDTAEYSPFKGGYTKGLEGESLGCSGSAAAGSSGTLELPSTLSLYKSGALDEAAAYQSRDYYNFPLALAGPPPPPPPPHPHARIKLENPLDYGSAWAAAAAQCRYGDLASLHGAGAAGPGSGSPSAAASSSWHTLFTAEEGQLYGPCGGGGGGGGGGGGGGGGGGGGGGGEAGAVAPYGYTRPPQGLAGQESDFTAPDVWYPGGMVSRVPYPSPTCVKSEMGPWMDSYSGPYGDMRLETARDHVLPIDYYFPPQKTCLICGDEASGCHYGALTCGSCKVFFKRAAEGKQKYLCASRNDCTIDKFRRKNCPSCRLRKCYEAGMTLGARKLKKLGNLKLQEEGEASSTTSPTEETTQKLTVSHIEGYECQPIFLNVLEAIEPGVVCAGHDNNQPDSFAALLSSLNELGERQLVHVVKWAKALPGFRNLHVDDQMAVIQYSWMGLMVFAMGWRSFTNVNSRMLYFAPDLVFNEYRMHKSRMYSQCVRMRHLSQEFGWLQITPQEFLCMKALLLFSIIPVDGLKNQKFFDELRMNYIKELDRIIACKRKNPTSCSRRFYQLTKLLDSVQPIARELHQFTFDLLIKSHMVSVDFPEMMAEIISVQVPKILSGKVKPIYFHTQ
# Description: The detection was carried out using the HTRF HUMAN ANDROGEN RECEPTOR DETECTION KIT (cisbio, 64ANDRPEG), 4× Supplemented Lysis buffer was prepared using the Blocking reagent stock solution (100×) and Lysis buffer stock solution (4×), and 1× Supplemented Lysis buffer was prepared using the 4× Supplemented Lysis buffer and ddH2O. Premixed antibody solutions were prepared using Detection buffer, Androgen Receptor Eu Cryptate antibody, and Androgen Receptor d2 antibody.
# VCaP cells in a good growth state were taken, washed with PBS, digested with pancreatin, and added with 2% CSS—FBS phenol red-free DMEM complete medium to terminate the digestion. The cells were collected by using a centrifuge tube, adjusted to a cell density of 1×10^6 cells/mL, and seeded in a 96-well plate (100 µL/well). The cells were incubated overnight in a cell incubator. Compounds were added using a nanoliter pipettor such that the final concentrations of the compounds were 1000 nM-0.977 nM. Two duplicate wells were set for each concentration, and meanwhile, a control was set. After another 24 h of incubation in the cell incubator, the medium was pipetted out, the 1× Supplemented Lysis buffer was added at 40 μL/well to lyse the cells. After the cells were oscillated for 40 min at room temperature, 16 μL of the cell lysate was added to a 384-well plate, the Premixed antibody solutions were added at 4 μL/well, and the mixture was left to stand at 25° C. for 2 h. Fluorescence values were detected at 665 nm/620 nm using an Envision microplate reader, the four-parameter analysis was performed, the dose-response curves were fit, and DC50 (the concentration of the drug when the degradation rate reaches 50%) and Dmax (the maximum degradation rate) were calculated.
# VCaP cells = experiment: Assay on inhibitory activity for VCaP cell proliferation (CCK-8); conditions: 168 h incubation
# Description: as §1, with “2.1 Assay on inhibitory activity for VCaP cell proliferation VCaP” for “LNCaP”, “5%” for “2%”, “DMEM” for “1640”
SMILES,IC50 (LNCaP cells; Homo sapiens) [nM],DC50 (AR in VCaP cells) [nM],other results
N#Cc1ccc(O[C@H]2CC[C@H](NC(=O)c3ccc(N4CCC(N5CC(CN6CCc7c(ccc8c(C9CCC(=O)NC9=O)noc78)C6)C5)CC4)cc3)CC2)cc1Cl (stereo partly drawn) [Compound 82],< 1000,≤ 1,–
CN(c1ccc(C#N)c(Cl)c1)[C@H]1CC[C@H](NC(=O)c2ccc(N3CC(CN4CCc5c(ccc6c(C7CCC(=O)NC7=O)noc56)C4)C3)cc2)CC1 (stereo partly drawn) [Compound 113],< 1000,≤ 1,IC50 (VCaP cells; Homo sapiens): < 100 nM
N#Cc1ccc(O[C@H]2CC[C@H](NC(=O)c3ccc(N4CCN(C5CN(CC6Cc7ccc8c(C9CCC(=O)NC9=O)coc8c7C6)C5)CC4)nn3)CC2)cc1Cl (stereo partly drawn) [Compound 108],–,≤ 1,IC50 (VCaP cells): < 10 nM; IC50 (LNCaP cells): < 1000 nM
N#Cc1ccc(O[C@H]2CC[C@H](NC(=O)c3ccc(N4CCC(N5CC(N6Cc7ccc8c(C9CCC(=O)NC9=O)coc8c7C6)C5)CC4)nn3)CC2)cc1Cl (stereo partly drawn) [Compound 96],< 1000,≤ 1,"IC50 (VCaP cells; Homo sapiens, VCaP, 168 h): < 10 nM"
N#Cc1ccc(O[C@H]2CC[C@H](NC(=O)c3ccc(N4CCC(N5CCC(CN6CCc7c(ccc8c(C9CCC(=O)NC9=O)noc78)C6)CC5)CC4)nn3)CC2)cc1Cl (stereo partly drawn) [Compound 88],< 1000,≤ 1,–
N#Cc1ccc(O[C@H]2CC[C@H](NC(=O)c3ccc(N4CCC(N5CC(N6CCc7ccc8c(C9CCC(=O)NC9=O)noc8c7CC6)C5)CC4)nn3)CC2)cc1Cl (stereo partly drawn) [Compound 95],< 1000,≤ 1,IC50 (VCaP cells; Homo sapiens): < 100 nM
N#Cc1ccc(O[C@H]2CC[C@H](NC(=O)c3ccc(N4CCC(N5CC(CN6CCc7c(ccc8c(C9CCC(=O)NC9=O)noc78)C6)C5)CC4)nn3)CC2)cc1Cl (stereo partly drawn) [Compound 92],< 1000,≤ 1,"IC50 (VCaP cells; Homo sapiens, VCaP, 168 h): < 10 nM"
CN(c1ccc(C#N)c(Cl)c1)[C@H]1CC[C@H](NC(=O)c2ccc(N3CCC(CN4CCc5c(ccc6c(C7CCC(=O)NC7=O)noc56)C4)CC3)cc2)CC1 (stereo partly drawn) [Compound 58],< 1000,≤ 1,IC50 (VCaP cells; Homo sapiens): < 10 nM
N#Cc1ccc(O[C@H]2CC[C@H](NC(=O)c3ccc(N4CCC(N5CC(CN6Cc7ccc8c(C9CCC(=O)NC9=O)noc8c7C6)C5)CC4)cc3)CC2)cc1Cl (stereo partly drawn) [Compound 80],–,≤ 1,–
N#Cc1ccc(O[C@H]2CC[C@H](NC(=O)c3ccc(N4CCC(N5CC(CN6CCc7ccc8c(C9CCC(=O)NC9=O)noc8c7C6)C5)CC4)cc3)CC2)cc1Cl (stereo partly drawn) [Compound 81],–,≤ 1,–
CN(c1ccc(C#N)c(Cl)c1)[C@H]1CC[C@H](NC(=O)c2ccc(N3CCN(CC4Cc5ccc6c(C7CCC(=O)NC7=O)noc6c5C4)CC3)cc2)CC1 (stereo partly drawn) [Compound 71],–,≤ 1,–
N#Cc1ccc(O[C@H]2CC[C@H](NC(=O)c3ccc(N4CCC(N5CCC(CN6Cc7ccc8c(C9CCC(=O)NC9=O)noc8c7C6)CC5)CC4)nn3)CC2)cc1Cl (stereo partly drawn) [Compound 86],–,≤ 1,–
N#Cc1ccc(O[C@H]2CC[C@H](NC(=O)c3ccc(N4CCC(N5CCC(CN6CCc7ccc8c(C9CCC(=O)NC9=O)noc8c7C6)CC5)CC4)nn3)CC2)cc1Cl (stereo partly drawn) [Compound 87],–,≤ 1,–

# — patent US20260035384A1, “COMPOUND CONTAINING CYCLOHEXYL” (CHIA TAI TIANQING PHARMACEUTICAL GROUP CO., LTD., priority 2022, published 2026)
